The text below walks through data of ChEMBL document CHEMBL1141939, “Structure-activity relationship studies on a series of cyclohexylpiperazines bearing a phanylacetamide as ligands of the human melanocortin-4 receptor” (Bioorg Med Chem Lett, 2005).

For experiment [1], the target named is T1, Melanocortin receptor 4 (Homo sapiens, UniProt P32245). Put plainly: cAMP stimulation in HEK293 cells transfected with human MC4R. Format: functional, cell-based.
Experiment [2] addresses T1, Melanocortin receptor 4. Put plainly: biochemical. Type of experiment: cell-based, HEK293.
Description: Displacement of [125I]NDP-MSH from human MC4R expressed in HEK293 cells

T1 sequence (P32245 whole entry): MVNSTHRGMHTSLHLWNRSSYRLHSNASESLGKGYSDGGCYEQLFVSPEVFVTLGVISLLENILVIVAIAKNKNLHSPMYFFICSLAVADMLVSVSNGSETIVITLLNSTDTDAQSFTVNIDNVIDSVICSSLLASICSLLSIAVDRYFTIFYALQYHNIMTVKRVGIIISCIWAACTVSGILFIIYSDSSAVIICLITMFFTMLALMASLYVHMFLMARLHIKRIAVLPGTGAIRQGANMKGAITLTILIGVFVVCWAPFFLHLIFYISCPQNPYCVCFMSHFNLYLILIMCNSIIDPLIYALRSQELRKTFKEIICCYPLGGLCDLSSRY

In general, EC50 refers to the concentration giving half of the maximal effect. A low value points to an effect from little substance. By Emax is commonly meant the maximal effect, on the per cent scale that the assay sets. By Ki is commonly meant the dissociation constant of the complex between target and ligand, obtained from inhibition or displacement. Consider `O=C(Cc1ccccc1)NCC1(N2CCN(C(=O)[C@@H](Cc3ccc(Cl)cc3)NC(=O)[C@@H]3Cc4ccccc4CN3)CC2)CCCCC1`, for which, in experiment [1], the EC50 worked out at 46 nM and the maximal effect (Emax) came to 76%. For the same compound, the Ki in experiment [2] is 11 nM.

For `O=C(Cc1ccccc1)NCC1(N2CCN(C(=O)[C@@H](Cc3ccc(Cl)cc3)NC(=O)C3Cc4ccccc4N3)CC2)CCCCC1` (stereo partly specified), in experiment [1], a half-maximal response (EC50) required 360 nM and the maximal effect (Emax) stood at 22%. Further, the affinity in experiment [2], expressed as Ki, was 210 nM.

In experiment [1], `NC1(C(=O)N[C@H](Cc2ccc(Cl)cc2)C(=O)N2CCN(C3(CNC(=O)Cc4ccccc4)CCCCC3)CC2)CCc2ccccc2C1` (stereo partly specified) gave a concentration giving a half-maximal response (EC50) of 160 nM and an Emax of 87%. In experiment [2], this compound showed an inhibitory constant (Ki) of 82 nM.

Regarding `O=C(Cc1ccccc1)NCC1(N2CCN(C(=O)[C@@H](Cc3ccc(Cl)cc3)NC(=O)c3ccc(F)cc3)CC2)CCCCC1`, the Ki in experiment [2] stood at 97 nM.

In experiment [2], `CC(=O)N[C@H](Cc1ccc(Cl)cc1)C(=O)N1CCN(C2(CNC(=O)Cc3ccccc3)CCCCC2)CC1` came in with a Ki of 110 nM.

`O=C(Cc1ccccc1)NCC1(N2CCN(C(=O)[C@@H](Cc3ccc(Cl)cc3)NC(=O)Cc3ccccc3F)CC2)CCCCC1`: the Ki in experiment [2] came to 180 nM.

As for `NC1(C(=O)N[C@H](Cc2ccc(Cl)cc2)C(=O)N2CCN(C3(CNC(=O)Cc4ccccc4)CCCCC3)CC2)Cc2ccccc2C1`, in experiment [1], the concentration for a half-maximal effect (EC50) stood at 280 nM and the maximal response (Emax) was 49%. The Ki in experiment [2] was determined as 140 nM.

In the case of `COCC(=O)N[C@H](Cc1ccc(Cl)cc1)C(=O)N1CCN(C2(CNC(=O)Cc3ccccc3)CCCCC2)CC1`, in experiment [2], the inhibition constant (Ki) amounted to 170 nM.

Compound `O=C(Cc1ccccc1)NCC1(N2CCN(C(=O)[C@@H](Cc3ccc(Cl)cc3)NC(=O)c3cccnc3)CC2)CCCCC1` came in with an inhibition constant (Ki) in experiment [2] of 60 nM.

Consider `CCCCC(=O)N[C@H](Cc1ccc(Cl)cc1)C(=O)N1CCN(C2(CNC(=O)Cc3ccccc3)CCCCC2)CC1`, for which the Ki in experiment [2] was determined as 150 nM.

Consider `O=C(Cc1ccccc1)NCC1(N2CCN(C(=O)[C@@H](Cc3ccc(Cl)cc3)NC(=O)CC3Cc4ccccc4CN3)CC2)CCCCC1` (stereo partly specified), for which, in experiment [1], the concentration for a half-maximal effect (EC50) was 37 nM and the Emax came to 96%. In experiment [2], the Ki stood at 16 nM.

In experiment [1], `NC(CC(=O)N[C@H](Cc1ccc(Cl)cc1)C(=O)N1CCN(C2(CNC(=O)Cc3ccccc3)CCCCC2)CC1)c1ccccc1` (stereo partly specified) gave an EC50 of 270 nM and an Emax of 61%. Also, the inhibition constant (Ki) in experiment [2] is 42 nM.

As for `CCC(CC)C(=O)N[C@H](Cc1ccc(Cl)cc1)C(=O)N1CCN(C2(CNC(=O)Cc3ccccc3)CCCCC2)CC1`, in experiment [2], affinity was put at a Ki of 1000 nM.

As to `CN(C)CC(=O)N[C@H](Cc1ccc(Cl)cc1)C(=O)N1CCN(C2(CNC(=O)Cc3ccccc3)CCCCC2)CC1`, in experiment [1], the concentration giving a half-maximal response (EC50) is 300 nM and the Emax worked out at 63%. Further, in experiment [2], the affinity, expressed as Ki, was 100 nM.

In experiment [2], `CC(C)COC(=O)N[C@H](Cc1ccc(Cl)cc1)C(=O)N1CCN(C2(CNC(=O)Cc3ccccc3)CCCCC2)CC1` showed a Ki of 280 nM.

In experiment [1], `NC(Cc1ccccc1)C(=O)N[C@H](Cc1ccc(Cl)cc1)C(=O)N1CCN(C2(CNC(=O)Cc3ccccc3)CCCCC2)CC1` (stereo partly specified) came in with an EC50 of 420 nM and an Emax of 62%. In addition, in experiment [2], the affinity, expressed as Ki, was 130 nM.

As for `CC(C)CC(=O)N[C@H](Cc1ccc(Cl)cc1)C(=O)N1CCN(C2(CNC(=O)Cc3ccccc3)CCCCC2)CC1`, the Ki in experiment [2] amounted to 270 nM.

The compound `O=C(Cc1ccccc1)NCC1(N2CCN(C(=O)[C@@H](Cc3ccc(Cl)cc3)NC(=O)C3CCC3)CC2)CCCCC1` yielded a Ki in experiment [2] of 140 nM.

As to `NC1(C(=O)N[C@H](Cc2ccc(Cl)cc2)C(=O)N2CCN(C3(CNC(=O)Cc4ccccc4)CCCCC3)CC2)CCc2ccccc21` (stereo partly specified), in experiment [1], the half-maximal effective concentration (EC50) was 810 nM and the Emax came to 51%. The Ki in experiment [2] was 260 nM.

In experiment [1], `NC(Cc1ccncc1)C(=O)N[C@H](Cc1ccc(Cl)cc1)C(=O)N1CCN(C2(CNC(=O)Cc3ccccc3)CCCCC2)CC1` (stereo partly specified) had an EC50 of 590 nM and a maximal effect (Emax) of 54%. For the same compound, the Ki in experiment [2] was 120 nM.

On to `O=C(Cc1ccccc1)NCC1(N2CCN(C(=O)[C@@H](Cc3ccc(Cl)cc3)NC(=O)c3cnc4ccccc4c3)CC2)CCCCC1`, for which the inhibitory constant (Ki) in experiment [2] came to 61 nM.

`CCC(=O)N[C@H](Cc1ccc(Cl)cc1)C(=O)N1CCN(C2(CNC(=O)Cc3ccccc3)CCCCC2)CC1`: affinity in experiment [2] was put at a Ki of 160 nM.

In experiment [1], `NC(C(=O)N[C@H](Cc1ccc(Cl)cc1)C(=O)N1CCN(C2(CNC(=O)Cc3ccccc3)CCCCC2)CC1)c1ccccc1` (stereo partly specified) had an EC50 of 530 nM and a maximal effect (Emax) of 26%. The compound further displayed a Ki in experiment [2] of 79 nM.

Consider `CCCC(=O)N[C@H](Cc1ccc(Cl)cc1)C(=O)N1CCN(C2(CNC(=O)Cc3ccccc3)CCCCC2)CC1`, for which the Ki in experiment [2] is 210 nM.

In turn, `O=C(Cc1ccccc1)NCC1(N2CCN(C(=O)[C@@H](Cc3ccc(Cl)cc3)NC(=O)C3CC3)CC2)CCCCC1` registered a Ki in experiment [2] of 130 nM.

In experiment [1], `O=C(Cc1ccccc1)NCC1(N2CCN(C(=O)[C@@H](Cc3ccc(Cl)cc3)NC(=O)[C@H]3Cc4ccccc4CN3)CC2)CCCCC1` yielded an EC50 of 33 nM and a maximum response (Emax) of 96%. Further, in experiment [2], the affinity, expressed as Ki, was 16 nM.

`CC(C)C(=O)N[C@H](Cc1ccc(Cl)cc1)C(=O)N1CCN(C2(CNC(=O)Cc3ccccc3)CCCCC2)CC1` gave a Ki in experiment [2] of 300 nM.

In the case of `O=C(Cc1ccccc1)NCC1(N2CCN(C(=O)[C@@H](Cc3ccc(Cl)cc3)NC(=O)c3ccccc3)CC2)CCCCC1`, the affinity in experiment [2] corresponds to a Ki of 84 nM.

Compound `O=C(Cc1ccccc1)NCC1(N2CCN(C(=O)[C@@H](Cc3ccc(Cl)cc3)NC(=O)C3CCCC3)CC2)CCCCC1` yielded a Ki in experiment [2] of 230 nM.

For `CC(C)(C)CC(=O)N[C@H](Cc1ccc(Cl)cc1)C(=O)N1CCN(C2(CNC(=O)Cc3ccccc3)CCCCC2)CC1`, in experiment [1], a half-maximal response (EC50) required 570 nM and the maximum response (Emax) turned out to be 43%. For the same compound, affinity in experiment [2] was put at a Ki of 750 nM.

In turn, `O=C(Cc1ccccc1)NCC1(N2CCN(C(=O)[C@@H](Cc3ccc(Cl)cc3)NC(=O)c3ccco3)CC2)CCCCC1` came in with an inhibitory constant (Ki) in experiment [2] of 100 nM.

In the case of `O=C(Cc1ccccc1)NCC1(N2CCN(C(=O)[C@@H](Cc3ccc(Cl)cc3)NC(=O)C3NCc4ccccc43)CC2)CCCCC1` (stereo partly specified), in experiment [1], the concentration for a half-maximal effect (EC50) was 440 nM and the maximal response (Emax) worked out at 43%. Moreover, the affinity in experiment [2], expressed as Ki, was 99 nM.

With `O=C(Cc1ccccc1)NCC1(N2CCN(C(=O)[C@@H](Cc3ccc(Cl)cc3)NC(=O)Cc3cccs3)CC2)CCCCC1`, the Ki in experiment [2] stood at 80 nM.
